Data published in ChEMBL document CHEMBL1201862, “PubChem BioAssay data set” (2004).
Activity calls are given as the source filed them.

Experiments:
[1] = A Cell Based Secondary Assay to Explore Cytotoxicity in HepG2 Cells of Compounds that Modulate Mycobacterium tuberculosis in Media Containing Glycerol versus Media without Glycerol (2).; type: functional
[2] = Vero cell cytotoxicity, dose response, cytotoxicity control for M. tuberculosis growth inhibitor project, Vero cells, purified and synthesized compounds, set 5 (AID 504909); type: functional; conditions: Mycobacterium tuberculosis
[3] = microbe, parasite or virus in culture; type: functional; conditions: Mycobacterium tuberculosis
[4] = Luminescence Cell-Based Dose Retest to Confirm Inhibitors of Cancer Stem Cells. [Related pubchem assays (depositor defined):AID2717, AID2721]; type: functional; conditions: Homo sapiens
[5] = cytotoxicity in HMLE control line with eGFP shRNA, dose response, counter-screen for HMLE_sh_ECad selective toxicity project, cell-based, HMLE_sh_eGFP, luminescence (AID 463074); type: functional, Homo sapiens;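 note: HMLE human mammary epithelial cells expressing control shRNA against eGFP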
[6] = HepG2 cell cytotoxicity, cytotoxicity control, set 4 (AID 504910); type: functional; conditions: Mycobacterium tuberculosis
[7] = HepG2 cell cytotoxicity, dose response, cytotoxicity control, set 3 (AID 504853); type: functional; conditions: Mycobacterium tuberculosis
[8] = A Cell Based Secondary Assay to Explore Cytotoxicity in THP-1 Cells of Compounds that Modulate Mycobacterium tuberculosis in Media Containing Glycerol versus Media without Glycerol (2).; type: functional
[9] = THP-1 cell cytotoxicity, cytotoxicity control, set 4 (AID 504911); type: functional; conditions: Mycobacterium tuberculosis
[10] = Vero cell cytotoxicity, cytotoxicity control for M. tuberculosis inhibitor project, purified and synthesized samples, set 3 (AID 504684); type: functional
[11] = THP-1 cell cytotoxicity, dose response, cytotoxicity control, set 3 (AID 504852); type: functional; conditions: Mycobacterium tuberculosis
[12] = Vero cell cytotoxicity, dose response, cytotoxicity control for M. tuberculosis growth inhibitor project, Vero cells, purified and synthesized compounds, set 4 (AID 504854); type: functional; conditions: Mycobacterium tuberculosis
[13] = biological target: MAP kinase-interacting serine/threonine-protein kinase 2 (Homo sapiens, UniProt Q9HBH9); type: functional
[14] = biological target: Glycogen synthase kinase-3 beta (Homo sapiens, UniProt P49841); type: functional;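 note: value comes from a broad kinome profiling panel, with GSK3B as the panel member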
Glycogen synthase kinase-3 beta, sequence (P49841 whole entry): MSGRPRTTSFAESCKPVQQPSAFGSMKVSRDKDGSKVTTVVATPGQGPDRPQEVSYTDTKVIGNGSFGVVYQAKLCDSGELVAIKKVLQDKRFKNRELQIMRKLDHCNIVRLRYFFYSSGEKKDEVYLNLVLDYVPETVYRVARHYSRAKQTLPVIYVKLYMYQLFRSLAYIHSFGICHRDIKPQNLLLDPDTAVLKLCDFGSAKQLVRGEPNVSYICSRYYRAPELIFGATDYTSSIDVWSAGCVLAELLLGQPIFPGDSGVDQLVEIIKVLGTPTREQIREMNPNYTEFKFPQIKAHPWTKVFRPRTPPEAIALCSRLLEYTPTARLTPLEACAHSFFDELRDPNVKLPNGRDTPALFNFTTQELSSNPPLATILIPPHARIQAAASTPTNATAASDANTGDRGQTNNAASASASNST

[15] = biological target: Mitogen-activated protein kinase kinase kinase kinase 4 (Homo sapiens, UniProt O95819); type: functional
[16] = biological target: Serine/threonine-protein kinase pim-1 (Homo sapiens, UniProt P11309); type: functional
[17] = biological target: Homeodomain-interacting protein kinase 2 (Homo sapiens, UniProt Q9H2X6); type: functional;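 note: measured within a kinome-wide kinase profiling panel, HIPK2 being one panel member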
Homeodomain-interacting protein kinase 2, sequence (Q9H2X6 whole entry): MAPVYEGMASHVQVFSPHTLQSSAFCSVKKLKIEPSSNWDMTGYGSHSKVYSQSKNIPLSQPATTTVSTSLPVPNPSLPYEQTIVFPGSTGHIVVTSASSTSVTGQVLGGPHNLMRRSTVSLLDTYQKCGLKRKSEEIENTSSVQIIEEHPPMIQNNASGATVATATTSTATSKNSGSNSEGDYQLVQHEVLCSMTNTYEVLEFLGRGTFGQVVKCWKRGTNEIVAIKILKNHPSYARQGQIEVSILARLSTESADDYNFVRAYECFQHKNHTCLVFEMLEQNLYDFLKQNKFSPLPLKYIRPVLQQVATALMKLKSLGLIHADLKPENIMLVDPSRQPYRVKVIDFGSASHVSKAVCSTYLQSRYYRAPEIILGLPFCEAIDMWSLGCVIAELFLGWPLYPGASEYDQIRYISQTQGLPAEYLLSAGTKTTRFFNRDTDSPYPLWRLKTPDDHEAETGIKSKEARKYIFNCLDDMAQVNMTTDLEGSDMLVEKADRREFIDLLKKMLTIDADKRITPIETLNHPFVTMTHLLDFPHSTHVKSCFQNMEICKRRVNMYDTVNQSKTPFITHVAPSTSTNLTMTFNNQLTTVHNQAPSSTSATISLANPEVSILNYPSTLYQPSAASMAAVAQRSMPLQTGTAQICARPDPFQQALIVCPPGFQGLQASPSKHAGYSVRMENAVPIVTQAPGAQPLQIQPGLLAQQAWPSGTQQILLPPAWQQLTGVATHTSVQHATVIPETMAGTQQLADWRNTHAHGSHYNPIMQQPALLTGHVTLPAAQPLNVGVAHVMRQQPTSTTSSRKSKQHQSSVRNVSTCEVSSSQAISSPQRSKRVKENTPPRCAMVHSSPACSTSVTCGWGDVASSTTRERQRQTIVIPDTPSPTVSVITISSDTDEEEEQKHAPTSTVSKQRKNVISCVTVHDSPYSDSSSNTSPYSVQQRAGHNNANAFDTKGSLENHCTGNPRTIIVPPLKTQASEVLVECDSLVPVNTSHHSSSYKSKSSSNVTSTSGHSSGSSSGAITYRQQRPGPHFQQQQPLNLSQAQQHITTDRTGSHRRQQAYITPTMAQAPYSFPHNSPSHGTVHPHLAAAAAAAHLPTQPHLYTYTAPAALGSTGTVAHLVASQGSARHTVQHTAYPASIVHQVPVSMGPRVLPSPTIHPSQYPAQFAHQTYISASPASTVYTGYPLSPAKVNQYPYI

[18] = biological target: Cell division cycle 7-related protein kinase (Homo sapiens, UniProt O00311); type: functional;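 note: value obtained from a kinome-wide kinase panel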
[19] = biological target: Dual specificity protein kinase CLK4 (Homo sapiens, UniProt Q9HAZ1); type: functional
[20] = biological target: Interleukin-1 receptor-associated kinase 4 (Homo sapiens, UniProt Q9NWZ3); type: functional
[21] = biological target: cAMP-dependent protein kinase catalytic subunit alpha (Homo sapiens, UniProt P17612); type: functional
[22] = biological target: T1, Alkaline phosphatase, tissue-nonspecific isozyme (Homo sapiens, UniProt P05186); experiment: TNAP enzyme inhibition by screening hits, dose response, selectivity assay for mouse IAP inhibitor project, biochemical, human TNAP, uHTS hits (AID 488906); type: functional
T1 sequence (P05186 whole entry): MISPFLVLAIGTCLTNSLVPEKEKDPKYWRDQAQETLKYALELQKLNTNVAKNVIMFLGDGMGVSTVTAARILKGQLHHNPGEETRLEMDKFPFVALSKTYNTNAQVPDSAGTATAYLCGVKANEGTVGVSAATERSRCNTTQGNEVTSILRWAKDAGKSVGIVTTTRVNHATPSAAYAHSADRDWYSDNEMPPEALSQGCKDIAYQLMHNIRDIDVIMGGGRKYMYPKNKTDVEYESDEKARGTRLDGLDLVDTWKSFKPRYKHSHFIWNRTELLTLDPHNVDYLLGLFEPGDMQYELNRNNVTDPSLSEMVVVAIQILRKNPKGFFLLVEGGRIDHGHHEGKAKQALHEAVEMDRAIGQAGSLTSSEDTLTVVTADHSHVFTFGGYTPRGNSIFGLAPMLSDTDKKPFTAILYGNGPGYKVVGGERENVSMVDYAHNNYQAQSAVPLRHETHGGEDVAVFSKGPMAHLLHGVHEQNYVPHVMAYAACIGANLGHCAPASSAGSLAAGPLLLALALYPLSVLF

[23] = biological target: Intestinal-type alkaline phosphatase (Mus musculus, UniProt P24822); experiment: PubChem AID 488785; type: functional
[24] = biological target: T2, DNA dC->dU-editing enzyme APOBEC-3G (Homo sapiens, UniProt Q9HC16); experiment: SAR analysis of small molecule inhibitors of APOBEC3G DNA Deaminase via a fluorescence-based single-stranded DNA deaminase assay - Set 2.; type: functional; conditions: read-out: IC50_Mean
T2 sequence (Q9HC16 whole entry): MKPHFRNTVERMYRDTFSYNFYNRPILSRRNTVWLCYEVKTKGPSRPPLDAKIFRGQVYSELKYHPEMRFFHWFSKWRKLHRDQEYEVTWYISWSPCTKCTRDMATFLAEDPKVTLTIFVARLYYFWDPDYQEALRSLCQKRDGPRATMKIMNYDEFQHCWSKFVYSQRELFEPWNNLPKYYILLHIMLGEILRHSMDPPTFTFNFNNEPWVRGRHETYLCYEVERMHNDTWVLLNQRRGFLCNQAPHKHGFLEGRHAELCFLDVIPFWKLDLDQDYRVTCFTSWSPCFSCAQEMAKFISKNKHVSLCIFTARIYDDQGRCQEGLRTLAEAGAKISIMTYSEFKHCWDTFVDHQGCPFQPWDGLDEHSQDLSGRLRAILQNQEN

[25] = biological target: Bifunctional protein GlmU (Mycobacterium tuberculosis, UniProt P9WMN3); experiment: Inhibitors of Mycobacterial Glucosamine-1-phosphate acetyl transferase (GlmU). Secondary screen.; set-up: species or system Mycobacterium tuberculosis H37Rv
Bifunctional protein GlmU, sequence (P9WMN3 whole entry): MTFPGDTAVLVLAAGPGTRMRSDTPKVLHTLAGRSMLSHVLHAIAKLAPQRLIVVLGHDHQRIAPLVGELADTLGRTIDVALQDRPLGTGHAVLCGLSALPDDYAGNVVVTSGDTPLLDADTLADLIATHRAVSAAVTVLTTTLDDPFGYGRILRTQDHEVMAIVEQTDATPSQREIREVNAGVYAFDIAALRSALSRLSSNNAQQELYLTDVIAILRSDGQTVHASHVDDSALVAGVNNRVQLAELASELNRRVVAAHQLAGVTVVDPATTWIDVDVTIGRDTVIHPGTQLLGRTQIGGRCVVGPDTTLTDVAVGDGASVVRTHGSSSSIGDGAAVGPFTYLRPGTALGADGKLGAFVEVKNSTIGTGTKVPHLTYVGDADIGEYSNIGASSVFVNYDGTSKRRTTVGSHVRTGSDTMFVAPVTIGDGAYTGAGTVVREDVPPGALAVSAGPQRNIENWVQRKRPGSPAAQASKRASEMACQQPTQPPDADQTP

[26] = biological target: Troponin, cardiac muscle (Homo sapiens, UniProt P19429+P45379+P63316); experiment: inhibitors of cardiac thin filament calcium sensitivity, dose response, biochemical, fluorescence, cardiac regulated thin filaments, triplicate IC50 (AID 504742); type: protein-complex assay
[27] = biological target: Ephrin type-A receptor 4 (Mus musculus, UniProt Q03137); experiment: inhibitors of EphA4 binding to KYL peptide, primary screen, biochemical, colorimetric, mouse EphA4 (AID 689); type: functional
[28] = biological target: 1-phosphatidylinositol 4,5-bisphosphate phosphodiesterase gamma-1 (Homo sapiens, UniProt P19174); experiment: Counterscreen for inhibitors of phospholipase C isozymes (PLC-B3): Fluorescence-based biochemical high throughput dose response assay to identify inhibitors of phospholipase C isozymes (PLC-gamma1).
[29] = biological target: 1-phosphatidylinositol 4,5-bisphosphate phosphodiesterase beta-3 (Homo sapiens, UniProt Q01970); experiment: Fluorescence-based biochemical high throughput dose response assay to identify inhibitors of phospholipase C isozymes (PLC-B3).
[30] = biological target: ORF 73 (Human herpesvirus 8, UniProt O40947); experiment: inhibitors of C-LANA binding to LBS DNA, dose response, biochemical, fluorescence polarization, cherry-picked samples (AID 504725); set-up: species or system Human gammaherpesvirus 8;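 note: fluorescence polarization of a labeled DNA duplex reporting LANA DNA binding; potency is for inhibitors that block LANA binding to the DNA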
[31] = biological target: T3, Histone-lysine N-methyltransferase NSD2 (Homo sapiens, UniProt O96028); type: biochemical
T3 sequence (O96028 whole entry): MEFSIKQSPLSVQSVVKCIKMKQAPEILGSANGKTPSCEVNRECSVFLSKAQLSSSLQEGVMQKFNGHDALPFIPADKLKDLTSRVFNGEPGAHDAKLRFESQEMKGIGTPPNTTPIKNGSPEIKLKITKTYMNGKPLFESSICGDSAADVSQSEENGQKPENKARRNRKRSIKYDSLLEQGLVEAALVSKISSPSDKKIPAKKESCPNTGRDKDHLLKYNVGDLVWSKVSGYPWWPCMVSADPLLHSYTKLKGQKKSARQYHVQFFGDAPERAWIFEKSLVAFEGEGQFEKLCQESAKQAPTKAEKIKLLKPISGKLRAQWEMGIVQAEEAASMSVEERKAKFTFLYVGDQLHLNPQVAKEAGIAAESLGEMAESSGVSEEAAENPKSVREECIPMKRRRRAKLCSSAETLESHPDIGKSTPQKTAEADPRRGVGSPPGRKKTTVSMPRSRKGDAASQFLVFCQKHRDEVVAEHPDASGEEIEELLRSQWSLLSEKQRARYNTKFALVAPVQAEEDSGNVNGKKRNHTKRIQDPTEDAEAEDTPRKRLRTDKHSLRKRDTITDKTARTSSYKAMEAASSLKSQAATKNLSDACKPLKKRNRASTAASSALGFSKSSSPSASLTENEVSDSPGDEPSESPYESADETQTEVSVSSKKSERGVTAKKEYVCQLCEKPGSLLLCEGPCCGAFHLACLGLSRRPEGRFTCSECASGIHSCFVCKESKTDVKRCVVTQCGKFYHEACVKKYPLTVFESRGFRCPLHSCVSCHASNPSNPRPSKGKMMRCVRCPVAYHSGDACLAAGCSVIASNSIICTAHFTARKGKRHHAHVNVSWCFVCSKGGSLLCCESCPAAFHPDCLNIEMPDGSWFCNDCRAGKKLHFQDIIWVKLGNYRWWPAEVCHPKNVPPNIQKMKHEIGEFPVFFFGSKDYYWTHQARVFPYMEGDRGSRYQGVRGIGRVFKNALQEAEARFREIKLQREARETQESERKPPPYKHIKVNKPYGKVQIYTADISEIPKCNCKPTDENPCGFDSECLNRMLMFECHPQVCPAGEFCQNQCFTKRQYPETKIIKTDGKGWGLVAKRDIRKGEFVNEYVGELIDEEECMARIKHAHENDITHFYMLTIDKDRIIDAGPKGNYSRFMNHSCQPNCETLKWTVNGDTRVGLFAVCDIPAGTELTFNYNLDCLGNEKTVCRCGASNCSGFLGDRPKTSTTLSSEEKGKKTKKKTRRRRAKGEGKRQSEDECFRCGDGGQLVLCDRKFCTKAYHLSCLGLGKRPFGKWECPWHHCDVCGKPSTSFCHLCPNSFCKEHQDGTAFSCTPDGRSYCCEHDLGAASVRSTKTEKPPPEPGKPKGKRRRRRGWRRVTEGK

[32] = biological target: T2, DNA dC->dU-editing enzyme APOBEC-3G; experiment: APOBEC3G deaminase inhibitors, SAR follow-up, biochemical, fluorescence, single-stranded DNA substrate (AID 602136); type: functional; conditions: read-out: IC50_Mean
[33] = Artemis endonuclease inhibitor potency, dose response, biochemical, fluorescence intensity (AID 720701); type: functional;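 note: Artemis endonuclease enzyme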
[34] = biological target: T4, DNA dC->dU-editing enzyme APOBEC-3A (Homo sapiens, UniProt P31941); experiment: SAR analysis of small molecule inhibitors of APOBEC3A DNA Deaminase via a fluorescence-based single-stranded DNA deaminase assay - Set 2.; type: functional; conditions: read-out: IC50_Mean
T4 sequence (P31941 whole entry): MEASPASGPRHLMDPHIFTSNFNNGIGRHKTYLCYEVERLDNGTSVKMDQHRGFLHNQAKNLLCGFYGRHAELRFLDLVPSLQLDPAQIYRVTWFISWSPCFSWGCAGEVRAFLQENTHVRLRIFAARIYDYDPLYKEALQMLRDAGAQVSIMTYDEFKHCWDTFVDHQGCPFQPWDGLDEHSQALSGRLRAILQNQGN

[35] = biological target: Intestinal-type alkaline phosphatase (Homo sapiens, UniProt P09923); experiment: inhibition of human intestinal alkaline phosphatase – biochemical, dose response (AID 488876); type: functional
[36] = biological target: T4, DNA dC->dU-editing enzyme APOBEC-3A; experiment: SAR analysis of small molecule inhibitors of APOBEC3A DNA Deaminase via a fluorescence-based single-stranded DNA deaminase assay.; type: functional; conditions: read-out: IC50_Mean
[37] = biological target: Protein-tyrosine kinase 2-beta (Homo sapiens, UniProt Q14289);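 note: potency of inhibitors of PYK2 kinase phosphorylation of poly-GT substrate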
Protein-tyrosine kinase 2-beta, sequence (Q14289 whole entry): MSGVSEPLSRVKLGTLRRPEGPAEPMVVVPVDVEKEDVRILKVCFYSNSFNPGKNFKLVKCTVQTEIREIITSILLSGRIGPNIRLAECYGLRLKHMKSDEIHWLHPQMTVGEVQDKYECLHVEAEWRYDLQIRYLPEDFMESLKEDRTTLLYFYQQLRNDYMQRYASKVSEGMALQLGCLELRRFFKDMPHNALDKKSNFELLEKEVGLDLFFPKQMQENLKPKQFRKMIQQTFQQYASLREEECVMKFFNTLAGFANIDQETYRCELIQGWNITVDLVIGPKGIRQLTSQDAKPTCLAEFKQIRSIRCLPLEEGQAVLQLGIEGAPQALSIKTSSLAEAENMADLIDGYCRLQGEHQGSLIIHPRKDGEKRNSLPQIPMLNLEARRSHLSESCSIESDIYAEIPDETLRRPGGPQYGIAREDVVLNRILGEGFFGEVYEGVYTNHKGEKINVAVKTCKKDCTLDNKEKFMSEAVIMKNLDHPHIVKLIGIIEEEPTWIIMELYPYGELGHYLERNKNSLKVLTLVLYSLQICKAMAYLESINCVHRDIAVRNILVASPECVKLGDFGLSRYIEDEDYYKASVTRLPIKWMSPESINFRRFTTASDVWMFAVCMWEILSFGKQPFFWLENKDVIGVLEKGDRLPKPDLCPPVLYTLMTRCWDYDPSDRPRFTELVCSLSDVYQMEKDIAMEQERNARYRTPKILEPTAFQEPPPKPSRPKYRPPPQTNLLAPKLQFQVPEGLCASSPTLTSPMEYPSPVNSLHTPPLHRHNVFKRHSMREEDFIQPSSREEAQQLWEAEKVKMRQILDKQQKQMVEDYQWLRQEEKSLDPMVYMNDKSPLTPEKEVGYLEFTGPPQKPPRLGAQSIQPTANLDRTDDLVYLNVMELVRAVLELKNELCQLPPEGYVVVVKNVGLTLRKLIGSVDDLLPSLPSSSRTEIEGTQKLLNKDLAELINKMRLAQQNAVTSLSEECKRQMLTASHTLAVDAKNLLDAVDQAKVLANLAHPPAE

[38] = biological target: Inhibitor of nuclear factor kappa-B kinase subunit alpha (Homo sapiens, UniProt O15111); type: functional
[39] = biological target: Megakaryocyte-associated tyrosine-protein kinase (Homo sapiens, UniProt P42679); type: functional;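 note: affinity measured as one member of a kinase panel (Navigating the Kinome) against MATK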
[40] = biological target: Inhibitor of nuclear factor kappa-B kinase subunit beta (Homo sapiens, UniProt O14920); type: functional
[41] = biological target: Serine/threonine-protein kinase Chk2 (Homo sapiens, UniProt O96017); type: functional;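 note: CHEK2 entry within a kinome-wide screening panel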
Serine/threonine-protein kinase Chk2, sequence (O96017 whole entry): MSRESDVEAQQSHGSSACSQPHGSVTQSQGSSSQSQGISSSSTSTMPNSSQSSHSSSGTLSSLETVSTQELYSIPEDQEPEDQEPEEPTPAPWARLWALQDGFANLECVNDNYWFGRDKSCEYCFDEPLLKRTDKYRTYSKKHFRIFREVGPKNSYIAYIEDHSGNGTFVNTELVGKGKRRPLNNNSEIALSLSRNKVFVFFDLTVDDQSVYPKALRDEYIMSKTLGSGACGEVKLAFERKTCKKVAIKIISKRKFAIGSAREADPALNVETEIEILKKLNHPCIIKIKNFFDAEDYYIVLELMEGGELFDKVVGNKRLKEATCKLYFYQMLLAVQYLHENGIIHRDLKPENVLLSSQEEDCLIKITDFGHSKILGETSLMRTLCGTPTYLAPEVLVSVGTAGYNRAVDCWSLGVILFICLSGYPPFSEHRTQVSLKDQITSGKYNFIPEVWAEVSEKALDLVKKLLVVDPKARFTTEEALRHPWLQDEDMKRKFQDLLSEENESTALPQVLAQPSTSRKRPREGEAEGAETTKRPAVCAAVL

[42] = biological target: Dual specificity tyrosine-phosphorylation-regulated kinase 4 (Homo sapiens, UniProt Q9NR20); type: functional
[43] = biological target: Misshapen-like kinase 1 (Homo sapiens, UniProt Q8N4C8); type: functional;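 note: kinome panel screen with MINK as the panel member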
[44] = biological target: Mitogen-activated protein kinase 13 (Homo sapiens, UniProt O15264); type: functional
[45] = biological target: Eukaryotic elongation factor 2 kinase (Homo sapiens, UniProt O00418); type: functional
[46] = biological target: Serine/threonine-protein kinase Nek4 (Homo sapiens, UniProt P51957); type: functional
[47] = biological target: Protein kinase C gamma type (Homo sapiens, UniProt P05129); type: functional
[48] = biological target: MAP kinase-activated protein kinase 3 (Homo sapiens, UniProt Q16644); type: functional;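 note: value comes from a kinome-wide profiling panel in which MAPKAPK3 is one of the panel members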
[49] = biological target: Homeodomain-interacting protein kinase 4 (Homo sapiens, UniProt Q8NE63); type: functional
Homeodomain-interacting protein kinase 4, sequence (Q8NE63 whole entry): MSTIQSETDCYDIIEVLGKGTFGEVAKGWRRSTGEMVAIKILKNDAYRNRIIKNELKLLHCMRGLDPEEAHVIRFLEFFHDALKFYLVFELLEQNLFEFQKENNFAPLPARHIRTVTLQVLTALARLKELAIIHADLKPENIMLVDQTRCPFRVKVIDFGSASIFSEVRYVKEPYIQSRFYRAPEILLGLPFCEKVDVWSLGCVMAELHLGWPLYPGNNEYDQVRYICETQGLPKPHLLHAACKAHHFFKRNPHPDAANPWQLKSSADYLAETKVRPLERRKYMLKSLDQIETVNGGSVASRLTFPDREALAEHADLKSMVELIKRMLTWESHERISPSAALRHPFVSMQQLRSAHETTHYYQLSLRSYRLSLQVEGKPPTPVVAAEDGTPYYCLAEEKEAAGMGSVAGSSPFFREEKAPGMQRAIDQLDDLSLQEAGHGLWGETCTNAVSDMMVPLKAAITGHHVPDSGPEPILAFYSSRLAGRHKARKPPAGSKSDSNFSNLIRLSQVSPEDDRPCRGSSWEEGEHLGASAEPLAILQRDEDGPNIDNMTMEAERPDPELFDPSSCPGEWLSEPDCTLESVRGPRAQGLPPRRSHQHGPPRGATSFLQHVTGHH

Cc1cccc(-c2oc3ccc(-c4ccc5c(c4)OCO5)cc3c2C#Cc2cncn2C)c1
CC50 [1]: > 50 µM (active)
CC50 [2]: 85.2 µM (active)
CC50 [3]: > 40 µM (active)
AC50 [4]: 5.28 µM (active)
AC50 [5]: 21.8 µM (active)
CC50 [6]: > 50 µM (active)
CC50 [7]: > 50 µM (active)
CC50 [8]: 43.8 µM (active)
CC50 [9]: > 44.8 µM (active)
CC50 [10]: 42.3 µM (active)
CC50 [11]: 34.6 µM (active)
CC50 [12]: > 93 µM (active)

c1ccc(Cn2cc(-c3ccc4[nH]nc(-c5ccccc5)c4c3)nn2)cc1
Ki [13]: 200 nM (active)
Ki [14]: 20 nM (active)
Ki [15]: 39.8 nM (active)
Ki [16]: 251 nM (active)
Ki [17]: 31.6 nM (active)
Ki [18]: 7.94 nM (active)
Ki [19]: 3.98 nM (active)
Ki [20]: 631 nM (active)
Ki [21]: 3.98 µM (active)

CC(C(=O)O)N1C(=O)/C(=C/C=C/c2ccco2)SC1=S (stereo not given)
IC50 [22]: > 100 µM (inactive)
IC50 [23]: 10 µM (active)
IC50 [24]: 884 nM (active)
IC50 [25]: 61.4 µM (active)
IC50 [26]: > 71.5 µM (inactive)
IC50 [27]: 2.79 µM (active)
IC50 [28]: > 122 µM (inactive)
IC50 [29]: > 122 µM (inactive)
AC50 [30]: 45.6 µM (active)
AC50 [31]: 1.63 µM (active)
IC50 [32]: 2.08 µM (active)
IC50 [33]: > 20 µM (inactive)
IC50 [34]: 1.21 µM (active)
IC50 [35]: > 100 µM (inactive)
IC50 [36]: 1.19 µM (active)
IC50 [37]: 1.07 µM (active)

CCC(CO)Nc1nc(NCc2ccccc2)c2ncn(C(C)C)c2n1 (stereo not drawn) [(RS)-ROSCOVITINE]
Ki [38]: > 3.98 µM (inactive)
Ki [39]: > 2 µM (inactive)
Ki [40]: > 3.16 µM (inactive)
Ki [41]: > 5.01 µM (inactive)
Ki [17]: > 3160 nM (inactive)
Ki [42]: > 7.94 µM (inactive)
Ki [43]: > 7.94 µM (inactive)
Ki [44]: > 7.94 µM (inactive)
Ki [45]: > 3.98 µM (inactive)
Ki [46]: > 6.31 µM (inactive)
Ki [47]: > 7.94 µM (inactive)
Ki [48]: > 10 µM (inactive)
Ki [49]: 1.58 µM (active)
